The structures appear in SMILES notation.

Holding throughout (type): binding
Test [1] addresses T1, 5-aminolevulinate synthase (cALAS) (Caulobacter vibrioides, UniProt Q9A8J8, H340A).
T1 construct: gene CC_1355; recombinant cALAS H340A, PLP form
Briefly: apparent Kd from spectrophotometric titration. The note with it: read-out: KdGly,app /.

In test [2] the target is T2, 5-aminolevulinate synthase (cALAS) (Caulobacter vibrioides, UniProt Q9A8J8, C398A/H340A).
T2 construct: gene CC_1355; recombinant cALAS H340A/C398A, PLP form
T2 sequence (Q9A8J8 1-408 H340A/C398A): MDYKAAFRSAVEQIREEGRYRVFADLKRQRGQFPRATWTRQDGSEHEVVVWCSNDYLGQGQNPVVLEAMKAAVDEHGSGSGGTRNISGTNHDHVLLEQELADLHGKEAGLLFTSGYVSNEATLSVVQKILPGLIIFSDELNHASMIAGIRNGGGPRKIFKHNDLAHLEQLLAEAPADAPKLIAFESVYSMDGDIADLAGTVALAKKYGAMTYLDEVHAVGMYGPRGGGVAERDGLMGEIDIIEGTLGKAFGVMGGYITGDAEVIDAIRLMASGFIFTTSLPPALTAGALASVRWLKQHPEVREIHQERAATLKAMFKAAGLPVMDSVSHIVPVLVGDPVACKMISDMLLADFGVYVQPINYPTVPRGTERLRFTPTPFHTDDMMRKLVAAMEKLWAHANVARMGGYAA
Briefly: apparent Kd from spectrophotometric titration. Particulars: read-out: KdGly,app /.

Test [3] addresses T3, 5-aminolevulinate synthase (cALAS) (Caulobacter vibrioides, UniProt Q9A8J8, C398A).
T3 construct: gene CC_1355; recombinant cALAS C398A, PLP form
Briefly: apparent Kd from spectrophotometric titration. The note with it: read-out: KdGly,app /.

In test [4] the target is T4, 5-aminolevulinate synthase (cALAS) (Caulobacter vibrioides, UniProt Q9A8J8). Briefly: UV/Vis spectrophotometric titration. Also on record: gene CC_1355; recombinant full-length cALAS, PLP form.
T4 sequence (Q9A8J8 1-408): as the sequence (Q9A8J8 1-408 H340A/C398A) above, with A340H, A398C counted along it
Test [5] deals with T5, 5-aminolevulinate synthase (cALAS) (Caulobacter vibrioides, UniProt Q9A8J8, D214A).
T5 construct: gene CC_1355; D214A apo-cALAS
T5 sequence (Q9A8J8 1-408 D214A): as the sequence (Q9A8J8 1-408 H340A/C398A) above, with D214A, A340H, A398C counted along it
Briefly: UV/Vis titration of apoenzyme with PLP.

Test [6] addresses T4, 5-aminolevulinate synthase (cALAS). Description: UV/Vis and CD at […] nm; HPLC of PLP from purified enzyme. Also on record: gene CC_1355; recombinant full-length cALAS, C-terminal His6-tag.

T1 sequence (Q9A8J8 1-408 H340A): as the sequence (Q9A8J8 1-408 H340A/C398A) above, with A398C counted along it
T3 sequence (Q9A8J8 1-408 C398A): as the sequence (Q9A8J8 1-408 H340A/C398A) above, with A340H counted along it

As to `NCC(=O)O` [glycine], the Kd in test [1] stood at 11.5 ± 1.17 mM; in test [2] it was 6.46 ± 1.5 mM; in test [3], 13.6 ± 3.1 mM; in test [4], 10.6 ± 1.35 mM.
As to `Cc1ncc(COP(=O)(O)O)c(C=O)c1O` [pyridoxal 5′-phosphate], the “UV/Vis titration of apoenzyme with PLP” value in test [5] was “upon PLP titration, cALAS displayed spectral changes supporting internal Schiff-base formation between PLP and Lys248”. The “UV/Vis and CD at 424 nm; HPLC of PLP from purified enzyme” value in test [6] was “a peak for PLP was observed for the PLP form of cALAS”.

The record behind these values is paper PMC6154995, “Heme-dependent Inactivation of 5-Aminolevulinate Synthase from Caulobacter crescentus” (Scientific Reports, 2018).
